Where a name gives a salt, the structure may show the parent alone.

Experiment [1] addresses T1, gastrointestinal H^+ K^+ ATPase (Sus scrofa, UniProt P19156).
T1 construct: Lyophilized gastric vesicles were prepared from pig fundic mucosa; from tissue; host or cells: pig fundic mucosa (lyophilized gastric vesicles)
Briefly: K+-stimulated ATPase activity in lyophilized gastric vesicles (H/K-ATPase). It counts as biochemical. Particulars: lyophilized pig gastric vesicles, 37° C.; for IC50: K+-stimulated ATPase activity, pH 7.0, 30 minutes. How it is done: The effects of a single high concentration (100 μM) of a compound of structure (I) on K-stimulated ATPase activity in lyophilized gastric vesicles was determined. Preferred compounds of structure (I) were also tested over a range of concentrations to determine IC50 values. Lyophilized gastric vesicles were prepared from pig fundic mucosa after the method of Keeling et. al. (Biochem. Pharmacol., 34, 2967, 1985). K^+ -stimulated ATPase activity was determined at 37° C. in the presence of the following : 10 mM Pipes/Tris buffer pH 7.0, 2 mM MgSO4, 1 mM KCl, 2 mM Na2 ATP and 3-6 μg protein/ml lyophilized gastric vesicles. After incubation for 30 minutes, the inorganic phosphate hydrolyzed from ATP was determined by the method of Yoda and Hokin (Biochem. Biophys. Res. Commun. 40, 880, 1970). Compounds of structure (I) were dissolved in dimethylsulphoxide which up to the highest concentration used had no effect on K^+ -stimulated ATPase activity. The effect of the highest concentration of each compound of structure (I) on the recovery of a standard amount of inorganic phosphate was also determined.

For experiment [2], the system named is pentagastrin stimulated gastric acid secretion. Description: Rat lumen perfused stomach (pentagastrin stimulated gastric acid secretion). It counts as in vivo. Particulars: iv, 10 μmole/kg. An excerpt:
B. Rat Lumen Perfused Stomach ([…] stimulated […] secretion) Using a modification of the procedure described by Ghosh & Schild (Br. J. Pharmacology, 13, 54, 1958), the compounds of the following examples were found on i.v. administration at a concentration of 10 μmole/kg to cause an inhibition of pentagastrin stimulated gastric acid secretion as follows: […]

T1 sequence (P19156 2-1034 limits assumed): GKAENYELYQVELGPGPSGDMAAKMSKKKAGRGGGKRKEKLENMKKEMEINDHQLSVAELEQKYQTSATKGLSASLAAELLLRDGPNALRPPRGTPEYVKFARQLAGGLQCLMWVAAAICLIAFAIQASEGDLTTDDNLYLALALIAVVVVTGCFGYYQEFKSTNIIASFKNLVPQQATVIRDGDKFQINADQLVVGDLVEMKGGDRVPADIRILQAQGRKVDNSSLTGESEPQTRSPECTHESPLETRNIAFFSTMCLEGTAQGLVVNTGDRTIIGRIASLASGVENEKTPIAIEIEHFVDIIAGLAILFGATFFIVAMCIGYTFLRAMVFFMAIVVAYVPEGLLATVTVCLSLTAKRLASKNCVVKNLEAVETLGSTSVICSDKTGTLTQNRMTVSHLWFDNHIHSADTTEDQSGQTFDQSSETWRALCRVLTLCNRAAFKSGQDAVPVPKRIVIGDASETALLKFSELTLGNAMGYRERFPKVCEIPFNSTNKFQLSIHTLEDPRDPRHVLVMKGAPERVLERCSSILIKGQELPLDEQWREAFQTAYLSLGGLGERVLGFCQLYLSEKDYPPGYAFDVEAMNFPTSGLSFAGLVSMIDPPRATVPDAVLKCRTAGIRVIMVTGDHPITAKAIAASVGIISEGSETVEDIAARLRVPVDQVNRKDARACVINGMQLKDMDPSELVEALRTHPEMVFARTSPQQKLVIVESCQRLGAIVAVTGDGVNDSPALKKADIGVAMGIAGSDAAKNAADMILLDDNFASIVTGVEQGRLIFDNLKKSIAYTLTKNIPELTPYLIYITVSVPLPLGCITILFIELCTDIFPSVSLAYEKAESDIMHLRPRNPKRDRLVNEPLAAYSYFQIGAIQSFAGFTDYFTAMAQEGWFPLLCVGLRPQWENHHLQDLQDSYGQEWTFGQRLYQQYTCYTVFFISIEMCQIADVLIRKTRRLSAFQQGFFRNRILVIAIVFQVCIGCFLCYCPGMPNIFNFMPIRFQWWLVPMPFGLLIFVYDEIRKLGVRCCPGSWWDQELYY
T1 sequence (P18434 whole entry partner): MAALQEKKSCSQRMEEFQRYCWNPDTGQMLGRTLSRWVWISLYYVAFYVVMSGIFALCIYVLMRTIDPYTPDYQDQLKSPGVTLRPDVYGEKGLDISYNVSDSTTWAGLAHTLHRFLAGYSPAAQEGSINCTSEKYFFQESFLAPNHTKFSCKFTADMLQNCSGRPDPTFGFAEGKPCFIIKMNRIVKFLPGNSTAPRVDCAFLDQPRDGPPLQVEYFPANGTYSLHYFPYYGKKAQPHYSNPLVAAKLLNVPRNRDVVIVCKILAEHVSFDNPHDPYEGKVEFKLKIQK

As to `CCCC(=O)c1cnc2c(OCCOCCOCCO)cccc2c1Nc1ccccc1C` [Example 12, 3-butyryl-4-(2-methylphenylamino)-8-(2-(2-(2-hydroxyethoxy)ethoxy)ethoxy)quinoline], the half-maximal inhibitory concentration (IC50) in experiment [1] turned out to be 2400 nM. The molecule further came in with an inhibition in vivo at 10 µmol/kg in experiment [2] of 57%.

The molecule `CCCC(=O)c1cnc2c(OCCOC)cccc2c1Nc1ccccc1C` [Example 2, 3-butyryl-4-(2-methylphenylamino)-8-(2-methoxyethoxy)quinoline] came in with an IC50 in experiment [1] of 2500 nM. Further, the inhibition in vivo at 10 µmol/kg in experiment [2] was determined as 67%.

Molecule `CCCC(=O)c1cnc2c(C(C)O)cccc2c1Nc1ccccc1C` (stereo not shown) [Example 4, 3-butyryl-4-(2-methylphenylamino)-8-(1-hydroxyethyl)quinoline] returned an IC50 in experiment [1] of 360 nM. Besides, in experiment [2], the inhibition in vivo at 10 µmol/kg came to 63%.

With `CCCC(=O)c1cnc2c(CO)cccc2c1Nc1ccc(F)cc1C` [Example 9, 3-butyryl-4-(4-fluoro-2-methylphenylamino)-8-(hydroxymethyl)quinoline], inhibition in experiment [1] was half-maximal at 2200 nM (IC50). In experiment [2], this molecule came in with an inhibition in vivo at 10 µmol/kg of 55%.

With `CCCC(=O)c1cnc2c(OCCO)cccc2c1Nc1ccccc1C` [Example 10, 3-butyryl-4-(2-methylphenylamino)-8-(2-hydroxyethoxy)quinoline], the half-maximal inhibitory concentration (IC50) in experiment [1] stood at 2400 nM. Further, the inhibition in vivo at 10 µmol/kg in experiment [2] was found to be 68%.

In experiment [1], `CCCC(=O)c1cnc2c(OCCOCCO)cccc2c1Nc1ccccc1C` [Example 11, 3-butyryl-4-(2-methylphenylamino)-8-(2-(2-hydroxyethoxy)ethoxy)quinoline] had a half-inhibitory concentration (IC50) of 2100 nM. For the same molecule, the inhibition in vivo at 10 µmol/kg in experiment [2] was determined as 77%.

`CCCC(=O)c1cnc2c(OCCO)cccc2c1Nc1ccc(F)cc1C` [Example 14, 3-butyryl-4-(4-fluoro-2-methylphenylamino)-8-(2-hydroxyethoxy)quinoline] displayed an IC50 in experiment [1] of 2700 nM. In experiment [2], this molecule gave an inhibition in vivo at 10 µmol/kg of 79%.

In experiment [1], `CCCC(=O)c1cnc2c(C(C)O)cccc2c1Nc1ccc(O)cc1C` (stereo not shown) [Example 15, 3-butyryl-4-(4-hydroxy-2-methylphenylamino)-8-(1-hydroxyethyl)quinoline] came in with an IC50 of 60 nM. In experiment [2], this molecule had an inhibition in vivo at 10 µmol/kg of 70%.

On to `CCCC(=O)c1cnc2cc(CO)ccc2c1Nc1ccccc1C` [Example 6, 3-butyryl-4-(2-methylphenylamino)-7-hydroxymethylquinoline], for which, in experiment [1] (@ 100 (μM), pH 7.0), the “% inhibition of K+-stimulated ATPase activity (printed in IC50 column as % @ 100)” value worked out at 44%.

The molecule `CCCC(=O)c1cnc2ccc(CO)cc2c1Nc1ccccc1C` [Example 5, 3-butyryl-4-(2-methylphenylamino)-6-hydroxymethylquinoline] yielded an IC50 in experiment [1] of 4400 nM. The inhibition in vivo at 10 µmol/kg in experiment [2] stood at 46%.

As for `Cc1cc(F)ccc1Nc1c(C(=O)C(C)C)cnc2c(CO)cccc12` [Example 8, 3-isobutyryl-4-(4-fluoro-2-methylphenylamino)-8-(hydroxymethyl)quinoline], the IC50 in experiment [1] stood at 2100 nM. For the same molecule, the inhibition in vivo at 10 µmol/kg in experiment [2] came out at 76%.

On to `Cc1cc(O)ccc1Nc1c(C(=O)C(C)C)cnc2c(CO)cccc12` [Example 16, 3-isobutyryl-4-(4-hydroxy-2-methylphenylamino)-8-(hydroxymethyl)quinoline hydrochloride], for which, in experiment [1], inhibition was half-maximal at 40 nM (IC50). Also, the inhibition in vivo at 10 µmol/kg in experiment [2] was found to be 91%.

The molecule `CCCC(=O)c1cnc2c(OCCOCCO)cccc2c1Nc1ccc(F)cc1C` [Example 13, 3-butyryl-4-(4-fluoro-2-methylphenylamino)-8-(2-(2-hydroxyethoxy)ethoxy)quinoline] had an IC50 in experiment [1] of 4000 nM. The molecule further gave an inhibition in vivo at 10 µmol/kg in experiment [2] of 49%.

Take `CCCC(=O)c1cnc2c(CO)cccc2c1Nc1ccc(O)cc1C` [Example 3, 3-butyryl-4-(4-hydroxy-2-methylphenylamino)-8-(hydroxymethyl)quinoline hydrochloride]: in experiment [1], 180 nM corresponded to half-maximal inhibition (IC50). In experiment [2], this molecule displayed an inhibition in vivo at 10 µmol/kg of 88%.

Molecule `Cc1ccccc1Nc1c(C(=O)C(C)C)cnc2c(CO)cccc12` [Example 7, 3-isobutyryl-4-(2-methylphenylamino)-8-(hydroxymethyl)quinoline] showed a half-maximal inhibitory concentration (IC50) in experiment [1] of 820 nM. The same molecule returned an inhibition in vivo at 10 µmol/kg in experiment [2] of 74%.

In the case of `CCCC(=O)c1cnc2c(CO)cccc2c1Nc1ccccc1C` [Example 1, 3-butyryl-4-(2-methylphenylamino)-8-(hydroxymethyl)quinoline], in experiment [1], the half-maximal inhibitory concentration (IC50) was determined as 840 nM. In experiment [2], this molecule showed an inhibition in vivo at 10 µmol/kg of 61%.

Values taken from patent US5089504A, “Substituted 4-aminoquinoline derivatives as gastric acid secretion inhibitors” (SmithKline Beckman Intercredit B.V., priority 1988, dated 1992).
